How the values were obtained:
[1] = test system: patients with NVAF; experiment: Clinical dose-guiding study: safety and tolerability (discontinuations, bleeding, adverse events)
Procedure: (§1) The tolerability of three different doses of X (20, 40, 60 mg p.o. b.i.d.) was compared with warfarin (aiming for an international normalisation ratio (INR) of 2 to 3) over 3 months' treatment in NVAF patients with moderately to high increased risk for stroke or systemic embolic events.
(§2) This was a multicentre, multinational, randomized, parallel group, dose-guiding study to compare the safety and tolerabilty of X with warfarin in stroke prophylaxis in patients with NVAF.
(§3) Patients were split into four groups: one group receiving 20 mg of X b.i.d, one given 40 (2×20) mg of X b.i.d, and one 60 (3×20) mg of X b.i.d. The fourth group received warfarin (open label, INR aiming for 2.0 to 3.0). All X medication was given double blind (i.e. neither doctor nor patient knew what tablet strength of X was given).
(§4) The duration of treatment was 12 weeks. […] The 40 mg b.i.d. dose was later reduced to 36 mg b.i.d. of X.

[2] = test system: patients with NVAF; experiment: Clinical dose-guiding study: stroke/TIA events; assay type: in vivo, human
Procedure: as §1, §2, §3, §4

[3] = test system: patients with NVAF; experiment: Ongoing open label follow-up trials, 1 year on; assay type: in vivo
Text: The duration of treatment was 12 weeks.

[4] = test system: patients with NVAF; experiment: Clinical dose-guiding study: warfarin management (INR by visit); assay type: in vivo, human
[5] = NVAF patients, 20, 40, 60 mg p.o. b.i.d.
Procedure: as §1, §3

[6] = warfarin group, 40 treatment years
[7] = X Dose 140 mg (so in the source) b.i.d., 12 weeks
[8] = X group, at 60 mg b.i.d., 12 weeks
[9] = X 36 mg b.i.d., 120 treatment years

CC(=O)CC(c1ccccc1)c1c(O)c2ccccc2oc1=O (centres unmarked) [Warfarin, warfarin]
Bleeding Events, category Major ([1]; warfarin group, 12 weeks): 1 | Bleeding Events, category Minor ([1]; warfarin group, 12 weeks): 2 | Bleeding Events, category Multiple Minor ([1]; warfarin group, 12 weeks): 1 | Bleeding Events, category None (patients) ([1]; warfarin group, 12 weeks): 60 | Bleeding Events, category Unspecified ([1]; warfarin group, 12 weeks): 3 | Number of Patients discontinued, reason Adverse Event ([1]; warfarin group, 12 weeks): 4 | Number of Patients discontinued, reason Calc. CrCl < 40 mL/min ([1]; warfarin group, 12 weeks): 5 | Number of Patients discontinued, reason Other ([1]; warfarin group, 12 weeks): 3 | Number of Patients discontinued, reason Withdrawn Consent ([1]; warfarin group, 12 weeks): 1 | Number of Patients, Total Discontinued ([1]; warfarin group, 12 weeks): 13 | Bleeding Events, category Major ([1]; warfarin group, 12 weeks, listed as warfarin): only major bleed (genital tract) and one | Prematurely discont. (percent of patients) ([1]; warfarin, INR aim 2.0-3.0, 12 weeks): (19%) | Prematurely discont. (number of patients) ([1]; warfarin, INR aim 2.0-3.0, 12 weeks, 67 randomised): 13 | TIAs reported ([2]; warfarin group, 12 weeks): two | Stroke/TIA event of individual patient ([2]; warfarin group, 12 weeks, one line per patient (Pat. 120, 153)): TIA | TIAs [3, 6]: 2 | fatal strokes [3, 6]: 2 | major life-threatening bleeds [3, 6]: 3 | Patients in INR Range 1.0-1.9 (number) ([4]; Visit 1, Week 0, N 62): 34 | Patients in INR Range 1.0-1.9 (percent) ([4]; Visit 1, Week 0, N 62): 55% | Patients in INR Range 2.0-3.0 (number) ([4]; Visit 1, Week 0, N 62): 21 | Patients in INR Range 2.0-3.0 (percent) ([4]; Visit 1, Week 0, N 62): 34% | Patients in INR Range >3.0 (number) ([4]; Visit 1, Week 0, N 62): 7 | Patients in INR Range >3.0 (percent) ([4]; Visit 1, Week 0, N 62): 11% | Patients in INR Range 1.0-1.9 (number) ([4]; Visit 3, Week 1, N 59): 22 | Patients in INR Range 1.0-1.9 (percent) ([4]; Visit 3, Week 1, N 59): 37% | Patients in INR Range 2.0-3.0 (number) ([4]; Visit 3, Week 1, N 59): 25 | Patients in INR Range 2.0-3.0 (percent) ([4]; Visit 3, Week 1, N 59): 42% | Patients in INR Range >3.0 (number) ([4]; Visit 3, Week 1, N 59): 12 | Patients in INR Range >3.0 (percent) ([4]; Visit 3, Week 1, N 59): 20% | Patients in INR Range 1.0-1.9 (number) ([4]; Visit 4, Week 2, N 54): 15 | Patients in INR Range 1.0-1.9 (percent) ([4]; Visit 4, Week 2, N 54): 28% | Patients in INR Range 2.0-3.0 (number) ([4]; Visit 4, Week 2, N 54): 26 | Patients in INR Range 2.0-3.0 (percent) ([4]; Visit 4, Week 2, N 54): 48% | Patients in INR Range >3.0 (number) ([4]; Visit 4, Week 2, N 54): 13 | Patients in INR Range >3.0 (percent) ([4]; Visit 4, Week 2, N 54): 24% | Patients in INR Range 1.0-1.9 (number) ([4]; Visit 5, Week 4, N 51): 17 | Patients in INR Range 1.0-1.9 (percent) ([4]; Visit 5, Week 4, N 51): 33% | Patients in INR Range 2.0-3.0 (number) ([4]; Visit 5, Week 4, N 51): 22 | Patients in INR Range 2.0-3.0 (percent) ([4]; Visit 5, Week 4, N 51): 43% | Patients in INR Range >3.0 (number) ([4]; Visit 5, Week 4, N 51): 12 | Patients in INR Range >3.0 (percent) ([4]; Visit 5, Week 4, N 51): 24% | Patients in INR Range 1.0-1.9 (number) ([4]; Visit 6, Week 8, N 49): 15 | Patients in INR Range 1.0-1.9 (percent) ([4]; Visit 6, Week 8, N 49): 31% | Patients in INR Range 2.0-3.0 (number) ([4]; Visit 6, Week 8, N 49): 25 | Patients in INR Range 2.0-3.0 (percent) ([4]; Visit 6, Week 8, N 49): 51% | Patients in INR Range >3.0 (number) ([4]; Visit 6, Week 8, N 49): 9 | Patients in INR Range >3.0 (percent) ([4]; Visit 6, Week 8, N 49): 18% | Patients in INR Range 1.0-1.9 (number) ([4]; Visit 7, Week 12, N 58): 18 | Patients in INR Range 1.0-1.9 (percent) ([4]; Visit 7, Week 12, N 58): 31% | Patients in INR Range 2.0-3.0 (number) ([4]; Visit 7, Week 12, N 58): 33 | Patients in INR Range 2.0-3.0 (percent) ([4]; Visit 7, Week 12, N 58): 57% | Patients in INR Range >3.0 (number) ([4]; Visit 7, Week 12, N 58): 7 | Patients in INR Range >3.0 (percent) ([4]; Visit 7, Week 12, N 58): 12%

CCOC(=O)CN[C@@H](C(=O)N1CC[C@H]1C(=O)NCc1ccc(/C(N)=N\O)cc1)C1CCCCC1 [X, EtO2C—CH2-(R)Cgl-Aze-Pab-OH]
Prematurely discont. (percent of patients) ([1]; X 20 mg p.o. b.i.d., 12 weeks): (15%) | Prematurely discont. (number of patients) ([1]; X 20 mg p.o. b.i.d., 12 weeks, 66 randomised): 10 | Prematurely discont. (percent of patients) ([1]; X 40 mg p.o. b.i.d., 12 weeks): (19%) | Prematurely discont. (number of patients) ([1]; X 40 mg p.o. b.i.d., 12 weeks, 64 randomised): 12 | onset pattern of bleeding ([1]; X 60 mg b.i.d., similar pattern to warfarin): occurs early in the treatment period | Prematurely discont. (percent of patients) ([1]; X 60 mg p.o. b.i.d., 12 weeks): (20%) | Prematurely discont. (number of patients) ([1]; X 60 mg p.o. b.i.d., 12 weeks, 60 randomised): 12 | Bleeding Events, category Major ([1]; X Dose 20 mg b.i.d., 12 weeks): 0 | Bleeding Events, category Minor ([1]; X Dose 20 mg b.i.d., 12 weeks): 1 | Bleeding Events, category Multiple Minor ([1]; X Dose 20 mg b.i.d., 12 weeks): 2 | Bleeding Events, category None (patients) ([1]; X Dose 20 mg b.i.d., 12 weeks): 61 | Bleeding Events, category Unspecified ([1]; X Dose 20 mg b.i.d., 12 weeks): 2 | Number of Patients discontinued, reason Adverse Event ([1]; X Dose 20 mg b.i.d., 12 weeks): 6 | Number of Patients discontinued, reason Calc. CrCl < 40 mL/min ([1]; X Dose 20 mg b.i.d., 12 weeks): 4 | Number of Patients discontinued, reason Other ([1]; X Dose 20 mg b.i.d., 12 weeks): 0 | Number of Patients, Total Discontinued ([1]; X Dose 20 mg b.i.d., 12 weeks): 10 | Bleeding Events, category Major ([1]; X Dose 40 mg b.i.d., 12 weeks): 0 | Bleeding Events, category Minor ([1]; X Dose 40 mg b.i.d., 12 weeks): 0 | Bleeding Events, category Multiple Minor ([1]; X Dose 40 mg b.i.d., 12 weeks): 3 | Bleeding Events, category None (patients) ([1]; X Dose 40 mg b.i.d., 12 weeks): 57 | Bleeding Events, category Unspecified ([1]; X Dose 40 mg b.i.d., 12 weeks): 2 | Bleeding Events, category Major ([1]; X Dose 60 mg b.i.d., 12 weeks): 0 | Bleeding Events, category Minor ([1]; X Dose 60 mg b.i.d., 12 weeks): 3 | Bleeding Events, category Multiple Minor ([1]; X Dose 60 mg b.i.d., 12 weeks): 0 | Bleeding Events, category None (patients) ([1]; X Dose 60 mg b.i.d., 12 weeks): 52 | Bleeding Events, category Unspecified ([1]; X Dose 60 mg b.i.d., 12 weeks): 4 | Number of Patients discontinued, reason Adverse Event ([1]; X Dose 60 mg b.i.d., 12 weeks): 5 | Number of Patients discontinued, reason Calc. CrCl < 40 mL/min ([1]; X Dose 60 mg b.i.d., 12 weeks): 4 | Number of Patients discontinued, reason Other ([1]; X Dose 60 mg b.i.d., 12 weeks): 1 | Number of Patients, Total Discontinued ([1]; X Dose 60 mg b.i.d., 12 weeks): 12 | Number of Patients discontinued, reason Adverse Event [1, 7]: 3 | Number of Patients discontinued, reason Calc. CrCl < 40 mL/min [1, 7]: 5 | Number of Patients discontinued, reason Other [1, 7]: 1 | Number of Patients, Total Discontinued [1, 7]: 12 | liver enzyme levels ([1]; a few patients treated with X): asymptomatic increases | tolerability ([1]; doses of up to 60 mg b.i.d. over 3 months): well tolerated | Stroke/TIA event of individual patient ([2]; X 60 mg b.i.d. group, 12 weeks, one line per patient (Pat. 121, 309)): Ischemic stroke and TIA | stroke rate ([2]; X group, all doses combined, estimated 40 patient years of observation): 2.5% | TIA reported [2, 8]: one | ischemic stroke reported [2, 8]: one | pharmacokinetics, dose dependence [5]: dose proportional | TIAs [3, 9]: 2 | major bleeds [3, 9]: no major bleeds | non-fatal strokes [3, 9]: 2

— patent US6462021B1, “Use of low molecular weight thrombin inhibitor” (AstraZeneca AB, priority 2000, dated 2002)
